Laboratory results as given in paper PMC9562342, “Structural and functional analysis of EntV reveals a 12 amino acid fragment protective against fungal infections” (Nature Communications, 2022).
Values joined by “and” are separate entries in the source; they are usually repeats but may differ in a detail not shown here. Equal entries are not always repeated. “Also recorded” adds a separate entry of the source. Where two headings read alike, the source gives them in different places. No end group written: not given here.

What was measured:
C. albicans AzR = assay type: in vivo, Candida albicans; details: C. albicans AzR infected C. elegans, peptides 1 nM, fluconazole 4 ug/ml, Fig 4D
C. albicans AzS = assay: C. elegans killing assay, C. albicans paired clinical isolate before fluconazole resistance (Az^S); assay type: in vivo, Candida albicans
[1] = Solubility of peptides (biophysical characteristics); assay type: physicochemical
Source text: Supplement 41467_2022_33613_MOESM1_ESM.docx, table 2: Supplementary Table 2. Biophysical characteristics of peptides. | column: Solubility

C. albicans [2] = assay: C. elegans killing assay, C. albicans infection; details: 1 nM peptide; for Median survival: C. albicans infected C. elegans
Protocol: C. elegans glp-4(bn2); sek-1(km-4)[48] nematodes were propagated and maintained on E. coli strain OP50[50] that was seeded onto nematode growth medium (NGM) agar using standard techniques (Hope, 1999). To synchronize the animals, L1 stage worms on non-starved plates were washed off, filtered through a 10 μm filter (pluriSelect, pluriStrainer 10 μm), harvested by centrifugation at 750 xg for 30 seconds, transferred to OP50 seeded plates, and grown to the L4 stage. To prepare the infection plates, Fungal strains were grown in YPD broth for 24 h at 37 °C with agitation. 500 μl of the culture was plated onto BHI solid medium containing gentamycin (10 μg/ml) and grown for 24 h at 37 °C. The synchronized, L4 C. elegans were washed off the OP50 plates in 2 ml sterile M9 buffer and washed once, centrifuging at 750 xg for 30 seconds to collect animals. Animals were infected by placing them on the fungal lawn for 4 h at 25 °C. Following this exposure, they were washed off the plate and washed four times with 2 ml of sterile M9. The nematodes were then pipetted (~30 per well with two wells per condition for a total of ~60 worms assayed) into six-well plates with 2 ml of liquid medium (20% BHI broth and 80% M9) containing the indicated concentrations of test compounds. Plates were incubated at 25 °C, and worm death was scored daily. Kaplan–Meier survival curves were generated and analyzed as described in the quantification and statistical analysis section.

C. albicans [3] = assay: Intravenous infection model (disseminated candidiasis); assay type: in vivo, mouse; details: C. albicans pre-incubated with 100 nM peptide for two hours, IV injection, day 22
C. albicans [4] = assay: Rat venous catheter model; assay type: in vivo; details: rat jugular vein catheter, 20 nM, 24 h, n of three
Protocol: To quantitate fungal burden after 24 h, the catheter was removed, and 1 cm of the tip placed in a one milliliter of sterile 0.9% NaCl followed by vortexing. A 1:10 serial dilution of this wash fluid was plated on SDA and colonies counted after 24 h of growth at 35 °C. […] Serial ethanol washes and critical point drying were used to dry the segments before they were mounted, and palladium-gold coated.

RBCs = assay: Hemolysis assay; assay type: cell-based, human; details: for fractional hemolysis (Toxicity): Extended Fig 6A
Protocol: De-identified and pooled RBCs were purchased from Rockland Immunochemicals, Inc. RBCs were prepared at 6 × 10^7 cells/mL in PBS. To 25 μL of peptide diluted appropriately to result in a final concentration of 1 nM and 1 µM, 125 μL of RBC suspension was added. The plates were gently rocked for 1 h at room temperature. The cells were then removed from suspension by centrifugation at 1000 xg for 5 min. From the experimental plate, 100 μL of the supernatant was carefully withdrawn from each well and added to a new 96-well plate. The absorbance of the solutions in each well was measured at 410 nm and each well was compared to a no-treatment control and a 100% lysis control (1% SDS).

C. albicans [5] = assay: C. albicans adhesion assay (polystyrene plates, crystal violet); assay type: cell-based, Candida albicans; details: for Adjusted avg / Avg Percent: Fig 3B, 10 nM, mean of 6 technical replicates; for Adjusted avg: background subtracted; for Avg Percent: relative adherence vs DMSO
Protocol: Similar to the methodology in[51], C. albicans strains were grown in YPD broth for 18 h at 30 °C with agitation and then subcultured for 4 h in the same conditions. […] The cell suspension was incubated for 1 h at 30 °C with agitation. Then 100 µl of the cell suspension was added to wells of a 96 well tissue culture treated polystyrene plate (Falcon) in addition to 100 µl of artificial saliva media[14],[52] containing the indicated concentrations of test compounds. The plate was then incubated at 37 °C for 90 min.
The adhered cell layer was then stained for 20 min with 40 µl of 0.08% crystal violet solution (diluted, Sigma). The crystal violet stain was removed, and the wells were then washed three times with sterile water. Adhered cells were then destained with 200 µl of 200 proof ethanol for 20 min, and 100 µl of the ethanol solution was transferred to a new well for analysis. The optical density at 595 nm (OD595) was measured using a Synergy H1 plate reader (BioTek) with Gen5 version 3.08 software (BioTek).

C. albicans [6] = assay: Mouse OPC model, epithelial (hyphal) invasion by histology; assay type: in vivo
C. albicans [7] = assay: C. albicans CFUs before and after two-hour pre-incubation with peptide; details: 100 nM, two-hour incubation in PBS
Protocol: To increase the chances of observing an effect, we pre-incubated C. albicans with 100 nM of EntV or the 12mer for two hours prior to intravenous (IV) injection of 1 ×10^5 CFU.
The disseminated candidiasis model[59],[60] was performed by growing C. albicans SC5314 overnight in YPD at 30 °C, then diluting 1/100 and growing in a second overnight. The late-log phase culture was collected by centrifugation at 16,000 xg for 30 s, washed in PBS, and diluted to 5 × 10^6 cells/ml in PBS containing vehicle (0.01% DMSO) or 100 nM EntV or the 12mer peptide and incubated for 2 h at room temperature. Female ICR mice 6 wks, 18–20 g, 10/experimental group were inoculated via the lateral tail vein with 0.1 ml. Animals were monitored at least twice daily for 21 days for signs of moribundity.

C. albicans [8] = assay: Mouse OPC model, fungal burden in tongue by qPCR; assay type: in vivo
[9] = tested on: C. neoformans strain 40-71; assay: C. elegans killing assay, C. neoformans infection; assay type: in vivo, Cryptococcus neoformans; details: 1 nM peptide
[10] = Peptide serum stability assay; assay type: in vitro ADME, human
Protocol: One mL of RPMI supplemented with 10% (v/v) of human serum (type AB) were aliquoted and temperature-equilibrated at 37 °C for 15 min before adding a concentrated stock peptide solution resulting in a final peptide concentration of 100 µM. For each time point, 100 µL of the reaction solution was removed and added to 200 µL 96% ethanol for precipitation of serum proteins. The sample was cooled (4 °C) for 15 min and then spun at 18,000 g for 2 min to pellet the precipitated serum proteins. The reaction supernatant was analyzed using HPLC with absorbance detected at 280 nm. The peptide peak was detected first without serum treatment to assess the area under the curve for the peptide of interest. At each time point the area under the curve was calculated by HPLC and then divided by the untreated peptide area under the curve to determine the percent remaining.

[11] = 10 nM and 1 nM in drinking water

OC(Cn1cncn1)(Cn1cncn1)c1ccc(F)cc1F [Flu, fluconazole, reference compound]
Median survival (C. albicans AzR; trial 1): 8 days
Median survival (C. albicans AzR; trial 2): 6 days
Median survival (C. albicans AzS; in vivo): 11 days and 10 days

TNAAAAQQGGIICLLVVWLS [α7-disrupted]
Solubility [1]: 10 µM +
Median survival (C. albicans [2]; Fig 2C, trial 1): 6 days
Median survival (C. albicans [2]; Fig 2C, trial 2): 6 days

TNVGALWICGLAVIQAAQLS [α7-random]
Solubility [1]: 10 µM +
Median survival (C. albicans [2]; Fig 2C, trial 1): 7 days
Median survival (C. albicans [2]; Fig 2C, trial 2): 7 days

VAGQLALWAVQC [12aa]
Survival of mice at end of experiment (in words) (C. albicans [3]): about half the animals were still alive
Solubility ([1]; Supplementary Table 2, printed as '10 µM +'): 10 µM +
Reduction of catheter fungal burden (C. albicans [4]): 1.5 logs
Median survival (C. albicans AzR; trial 1): 10 days
Median survival (C. albicans AzR; trial 2): 11 days
Protection of C. elegans against C. albicans infection (in words) (C. albicans [2]): as effective in protecting against C. albicans infection in the worm model and inhibiting surface adhesion as full-length EntV
Median survival (C. albicans [2]; Fig 3A, trial 1): 10.5 days
Median survival (C. albicans [2]; Fig 3A, trial 2): 10 days
Median survival (C. albicans [2]; Fig 3A, trial 3): 9.5 days
Median survival (C. albicans [2]; Fig 3E, trial 1): 11 days
Median survival (C. albicans [2]; Fig 3E, trial 2): 10 days
Median survival (C. albicans [2]; Fig 3E, trial 3): 10 days
Lysis of red blood cells (in words) (RBCs; 1 nM and 1 µM peptide, 6 x 10^7 RBC cells/mL in PBS, 1 h room temperature, absorbance 410 nm, n of 6, listed as 12mer): no lysis of red blood cells; also recorded: no toxicity
fractional hemolysis (Toxicity) (RBCs; 1nM, replicate 1): 0.01086
fractional hemolysis (Toxicity) (RBCs; 1nM, replicate 2): 0.03086
fractional hemolysis (Toxicity) (RBCs; 1nM, replicate 3): 0.01386
fractional hemolysis (Toxicity) (RBCs; 1nM, replicate 4): 0.05786
fractional hemolysis (Toxicity) (RBCs; 1uM, replicate 1): 0.04886
fractional hemolysis (Toxicity) (RBCs; 1uM, replicate 2): 0.05786
fractional hemolysis (Toxicity) (RBCs; 1uM, replicate 3): 0.03286
fractional hemolysis (Toxicity) (RBCs; 1uM, replicate 4): 0.08286
Inhibition of C. albicans adhesion to polystyrene (in words) (C. albicans [5]; 1 h with peptide in PBS, then artificial saliva media 90 min, crystal violet): as effective in protecting against C. albicans infection in the worm model and inhibiting surface adhesion as full-length EntV
Adjusted avg (C. albicans [5]; biological replicate 1): 0.262
Avg Percent (C. albicans [5]; biological replicate 1): 40.07%
Adjusted avg (C. albicans [5]; biological replicate 2): 0.408
Avg Percent (C. albicans [5]; biological replicate 2): 48.28%
Adjusted avg (C. albicans [5]; biological replicate 3): 0.161
Avg Percent (C. albicans [5]; biological replicate 3): 13.25%
Adjusted avg (C. albicans [5]; biological replicate 4): 0.232
Avg Percent (C. albicans [5]; biological replicate 4): 27.81%
Invasion of the tongue epithelium (in words) (C. albicans [6]; [11]): the reduction in invasion remained dramatic
Hyphal invasion of the tongue (in words) (C. albicans [6]; 50 nM in drinking water, day 5): significant lowering of hyphal invasion
Hyphal invasion relative to fluconazole (in words) (C. albicans [6]; 100 nM and 500 nM in drinking water versus 4 µg/mL fluconazole, day 5): slightly less prevalent
Epithelial / hyphal invasion of the tongue (in words) (C. albicans [6]; mouse, in vivo, listed as 12mer): at least as effective as the full length EntV; also recorded: most reduced
C. albicans CFUs before versus after incubation with peptide (in words) (C. albicans [7]): no significant difference
Median survival (C. albicans AzS; C. albicans AzS infected C. elegans, peptides 1 nM, fluconazole 4 ug/ml, Fig 4C, trial 1): 12 days
Median survival (C. albicans AzS; C. albicans AzS infected C. elegans, peptides 1 nM, fluconazole 4 ug/ml, Fig 4C, trial 2): 10.5 days
Fungal burden on the tongue (in words) (C. albicans [8]; [11]): only a slight reduction in fungal burden on the tongue
Fungal burden in the tongue (in words) (C. albicans [8]; 50 nM in drinking water, day 5): loss of efficacy in terms of fungal burden
Fungal burden in the tongue, established infection (in words) (C. albicans [8]; 100 nM in drinking water starting at day three, sacrificed on day five): significantly less fungal burden compared to both groups of untreated animals
Fungal burden in the tongue, C. albicans DNA by qPCR (in words) (C. albicans [8]; corticosteroid-suppressed mice, 100 nM in drinking water from inoculation, day 5, listed as 12mer): equally effective; also recorded: even more effective at reducing fungal burden than 4 µg/mL fluconazole
Protection of C. elegans infected with C. neoformans (in words) [9]: protected C. neoformans infected worms from killing
stability in the presence of 10% human serum ([10]; 10% human serum, 0 Hrs, fraction relative to 0 Hrs, mean (SD) of n = 3): 1.0 (0.0)
remaining at 2 h ([10]; 10% human serum, 2 Hrs, fraction relative to 0 Hrs, mean (SD) of n = 3, read-out: stability in the presence of 10% human serum): 44.3%
remaining at 4 h ([10]; 10% human serum, 4 Hrs, fraction relative to 0 Hrs, mean (SD) of n = 3, read-out: stability in the presence of 10% human serum): 39.3%
remaining at 24 h ([10]; 10% human serum, 24 Hrs, fraction relative to 0 Hrs, mean (SD) of n = 3, read-out: stability in the presence of 10% human serum): 12.4%
Peptide detectable (percent remaining) in serum ([10]; RPMI with 10% (v/v) human serum (type AB), 37 °C, 100 µM peptide, 24-hour incubation, HPLC 280 nm, mean of n of 3): about 10%
Stability in serum (in words) ([10]; RPMI with 10% (v/v) human serum (type AB), 37 °C, 100 µM peptide, HPLC 280 nm, n of 3): not particularly stable in serum
